“Also recorded” adds a separate entry of the source. Where two headings read alike, the source gives them in different places.
Legend:
[1] = test system: normal human peripheral blood mononuclear leukocytes; experiment: cells; assay type: cell-based
[2] = test system: allogeneic immune response in popliteal lymph node; experiment: In vivo assay of immunosuppressive activity: allogeneic immune response in draining popliteal lymph node after footpad injection; parameters: species or system C3H mice; details: for lymph node mass, stimulated / lymph node mass, net increase / lymph node mass, unstimulated: day 4; for lymph node mass, stimulated: left footpad; for lymph node mass, unstimulated: right footpad
Source text: In vivo Assay of Immunosuppressive Activity: Footpad injection of the synthetic ganglioside derivatives being studied and of the stimulant of the cellular immune response (allogeneic cells), is subsequently followed by harvest of the popliteal node and assessment of the node size, cell number, specific proliferation response and generation of specific cytotoxicity.
Mice: C3H (H-2^K) and BALB/c (H-2^d) mice are obtained at 6 weeks of age and used in these experiments at 7-12 weeks of age. The animals are murine virus free strains purchased from Charles River, Wilmington, Mass.
Preparation of stimulator cells: Spleens are removed aseptically and immediately placed in murine complete media [RPMI 1640 w/o L-glutamine (Whittaker Bioproducts, Walkersville, Md.) supplemented with 10% FCS; 1% of MEM non-essential amino acids (Cellgro), sodium pyruvate, L-glutamine, Penicillin 50 U/ml/Streptomycin 50 μg/ml and 10 mM Hepes Buffer (Whittaker Bioproducts)] then transferred to a 60×10 mm petri dish. A sterile single cell suspension is prepared by gently pressing the spleen onto a cell dissociation sieve (Sigma). Mononuclear cells are isolated by Ficoll-Hypaque density gradient separation, followed by lysis of erythrocytes (ACK lysing buffer pH 7.4). The cells are washed and their viability determined by trypan blue exclusion. Allogeneic (BALB/c) splenocytes are diluted to the appropriate concentration in saline and are injected into the footpad of C3H mice together with the synthetic ganglioside derivatives to be tested.
Preparation of synthetic ganglioside derivatives: Synthetic ganglioside derivatives are aliquoted in HPLC-grade chloroform:methanol (1:1), and dried in glass microvials. The synthetic ganglioside derivatives are then resuspended for injection in 0.9% NaCl, sonicated for 2 min in a Branson water bath sonicator.
Injections: Spleen cells or tumor cells and the synthetic ganglioside derivatives being studied are injected into the left hind footpad in a total volume of 30 μl.
Isolation of popliteal lymph nodes: Primed animals are killed by cervical dislocation on day 4, the popliteal lymph node draining the left and right footpads are removed aseptically, trimmed free of excess fat, weighted and placed on ice in tubes containing tissue culture medium. The nodes are then teased with a flat end of a 3 ml syringe to obtain a single cell suspension, which is washed in complete murine media containing 0.1% 2mercaptoethanol (Gibco, New York). The cells are then quantified and their viability determined by trypan blue exclusion. The cell concentration is adjusted to 2×10^6 cells/ml.
Cell cultures: 2×10^5 lymph node cells in 100 μl are cultured for 18 hours in complete medium with 0.5 μC ^3 H-thymidine incorporation quantified by β-scintillation counting as a measure of in vivo lymphocyte activation (50).
In this model, the immune response in a local microenvironment directed against allogeneic cells is assessed. Allogeneic (C3H mice) spleen cells were injected into the footpad of BALB/c mice and the draining popliteal lymph nodes were removed from the sacrificed mice four days later.

[3] = Homo sapiens, Leukocyte, 2.5 μM, read-out: Inhibition
[4] = Homo sapiens, Leukocyte, 5.0 μM, read-out: Inhibition
[5] = Table 1, mean ± SD of five mice, GM3 n=1 10 nmol coinjected, cyclosporin A 24 mg/kg/dose i.p. × 4 doses
[6] = Table 2, mean ± SD of five mice, dialkyl GM3 11 μg coinjected, CSA 24 mg/kg/day i.p. × 4 days
[7] = Table 4, mean ± SD of five mice, ganglioside 10 nmol coinjected, CSA 24 mg/kg/dose i.p. × 4 doses
[8] = Homo sapiens, Leukocyte, read-out: inhibition of human lymphoproliferation

**Q.** CCCCCCCCCCCCCC=CC(O)C(COC1OC(CO)C(OC2OC(CO)C(O)C(OC3(C(=O)O)CC(O)C(NC(C)=O)C(C(O)C(O)CO)O3)C2O)C(O)C1O)NC(=O)CCCCCCCCCCCCC (stereo not drawn) [GM3 d18:1-C14:0] was tested. Which “[^3 H] Thymidine Uptake” value ([1]; 2.5 μM) did it give?
**A.** 4.6 CPM × 10^-3

**Q.** What about the “[^3 H] Thymidine Uptake” value ([1]; 5.0 μM) of the same compound?
**A.** 0.8 CPM × 10^-3

**Q.** What about the inhibition at 2.5 µM [1, 3] of the same compound?
**A.** 53%

**Q.** And the inhibition at 5 µM [1, 4]?
**A.** 92%

**Q.** How did the “[^3 H]thymidine uptake (spontaneous lymphoproliferation)” value ([2]; Table 1, 2 × 10^5 cells/well, mean ± SD of three cultures) turn out when CCCCCCCCCCCCCC=CC(O)C(COC1OC(CO)C(OC2OC(CO)C(O)C(OC3(C(=O)O)CC(O)C(NC(C)=O)C(C(O)C(O)CO)O3)C2O)C(O)C1O)NC(C)=O (stereo not drawn) [GM3 n=1] was run?
**A.** 329 ± 18 cpm

**Q.** What about the “lymphocytes (total mononuclear leukocytes recovered from five stimulated popliteal lymph nodes)” value ([2]; Table 1, GM3 n=1 10 nmol, cyclosporin A 24 mg/kg/dose i.p. × 4 doses) of the same compound?
**A.** 1.03 × 10^7

**Q.** What about the “lymph node mass, stimulated” value [2, 5] of the same compound?
**A.** 1.84 ± 0.30 mg

**Q.** And the “lymph node mass, net increase” value [2, 5]?
**A.** 0.56 ± 0.36 mg

**Q.** And the “lymph node mass, unstimulated” value [2, 5]?
**A.** 1.29 ± 0.24 mg

**Q.** What about the “P, difference in net increase of popliteal nodes between control and GM3 n = 1 treated groups” value ([2]; Table 1 footnote) of the same compound?
**A.** < 0.01

**Q.** And the “in vivo immunosuppressive activity compared with mixed human brain gangliosides” value ([2]; mouse, in vivo)?
**A.** much more active than the mixed brain gangliosides

**Q.** And the “in vivo immunosuppressive activity compared with cyclosporin A” value ([2]; single dose of GM3 n=1, Table 1)?
**A.** almost as immunosuppressive as systemically administered cyclosporin A

**Q.** And the “immunosuppressive activity compared with lyso GM3 (n=-1)” value [1]?
**A.** higher degree of immunosuppressive activity

**Q.** What about the “immunosuppressive activity compared with n = 17 or 23” value [1] of the same compound?
**A.** greater immunosuppressive activity than glycosphingolipids wherein n is 17 or 23

**Q.** And the “relative immunosuppressive activity (inhibition of human lymphoproliferative response)” value ([1]; 5 μM)?
**A.** highest immunosuppressive activity

**Q.** And the IC50 ([1]; Homo sapiens, Leukocyte, read-out: ID50, inhibition of the human lymphoproliferative response)?
**A.** 0.0002 µM

**Q.** What does the source list for CCCCCCCCCCCCCCC(CCCCCCCCCCCCCC)COC1OC(CO)C(OC2OC(CO)C(O)C(OC3(C(=O)O)CC(O)C(NC(C)=O)C(C(O)C(O)CO)O3)C2O)C(O)C1O [dialkyl GM3, 2-(Tetradecylhexadecyl) O-(5-acetamido-3,5-dideoxy-D-glycero-D-galacto-2-nonulopyranosylonic acid)-(2→3)-O-β-D-galactopyranosyl-(1→4)-β-D-glucopyranoside]?
**A.** [^3 H]thymidine uptake (spontaneous lymphoproliferation) [2]: 317 ± 45 cpm; [^3 H]thymidine uptake relative to control group ([2]; 2×10^5 cells): 20%; [^3 H]thymidine uptake (spontaneous lymphoproliferation) ([2]; Table 2, 0.5 × 10^5 cells, mean ± SEM of three cultures): 107 ± 29 cpm; [^3 H]thymidine uptake (spontaneous lymphoproliferation) ([2]; Table 2, 1 × 10^5 cells, mean ± SEM of three cultures): 152 ± 15 cpm; lymph node mass, net increase ([2]; Table 2, dialkyl GM3 11 μg coinjected, CSA 24 mg/kg/day i.p. × 4 days): 0.45 mg; lymph node mass, stimulated [2, 6]: 1.86 ± 0.25 mg; lymph node mass, unstimulated [2, 6]: 1.41 ± 0.17 mg; lymphocytes (total mononuclear leukocytes recovered from five stimulated popliteal lymph nodes) ([2]; Table 2, dialkyl GM3 11 μg, CSA 24 mg/kg/day i.p. × 4 days): 0.83 ×10^7; suppression of the immune response / proliferation, in words ([2]; Table 2, three cell densities for proliferation): marked suppression of the immune response; also recorded: markedly suppresses the proliferation; lymphocyte number as fraction of control group ([2]; control group 2.3×10^7 cells): ≤ 1/3; net increase of lymph node mass ([2]; dialkyl GM3 10 nmol or 11 μg/mouse coinjected, cyclosporin A systemic): 0.45 mg; lymphocyte (mononuclear-leukocyte) number ([2]; five nodes from five mice): 0.8 ×10^7; immunosuppressive activity in vitro, in words [1]: marked immunosuppressive activity; also recorded: higher degree of inhibition of dialkyl GM3 than that of GM3 is readily observed; potency relative to GM3 d18:1-C18:0 [1]: four-fold; [^3 H] Thymidine Uptake ([1]; 2.5 μM): 0.7 CPM × 10^-3; [^3 H] Thymidine Uptake ([1]; 5.0 μM): 0.3 CPM × 10^-3; IC50 ([1]; Homo sapiens, Leukocyte, 0-10 μM, read-out: ID50, inhibition of human lymphoproliferation): 0.2 µM; inhibition at 2.5 µM [1, 3]: 93%; inhibition at 5 µM [1, 4]: 97%; IC90 ([1]; Homo sapiens, Leukocyte, read-out: concentration at which 90% inhibition was observed, 0-20 μM): < 7 µM

**Q.** Which “lymph node mass, net increase” value ([2]; Table 4, ganglioside 10 nmol coinjected, CSA 24 mg/kg/dose i.p. × 4 doses) does the source give for CCCCCCCCCCCCCC=CC(O)C(COC1(C(=O)O)CC(O)C(NC(C)=O)C(C(O)C(O)CO)O1)NC(=O)CCCCCCCCCCCCCCCCC [αGM5, (2S,3R,4E)-1-O-(5-acetamido-3,5-dideoxy-D-glycero-α- and β-D-galacto-f2-nonulopyranosylonicacid)-2-octadecanamido-4-octadecene-1,3-diol] here?
**A.** 0.58 mg

**Q.** What about the “lymph node mass, stimulated” value [2, 7] of the same compound?
**A.** 1.40 ± 0.22 mg

**Q.** And the “lymph node mass, unstimulated” value [2, 7]?
**A.** 0.82 ± 0.26 mg

**Q.** And the “in vivo immunosuppression, in words” value ([2]; αGM5, compared to systemically administered cyclosporin A, Table 4)?
**A.** highly immunosuppressive in vivo

**Q.** And the “reduction in cellular immune response (increase in lymph mass caused by in vivo allostimulation)” value ([2]; αGM5, Table 4)?
**A.** 2/3

**Q.** What about the “immunosuppressive activity in vitro, in words” value [1] of the same compound?
**A.** potent immunosuppressive agents

**Q.** What about the “[^3 H] Thymidine Uptake” value ([1]; 2.5 μM) of the same compound?
**A.** 0.1 CPM × 10^-3

**Q.** What about the “[^3 H] Thymidine Uptake” value ([1]; 5.0 μM) of the same compound?
**A.** 0.1 CPM × 10^-3

**Q.** And the inhibition at 2.5 µM [1, 3]?
**A.** 99%

**Q.** What about the inhibition at 5 µM [1, 4] of the same compound?
**A.** 99%

**Q.** What about the IC90 ([1]; Homo sapiens, Leukocyte, read-out: ID90) of the same compound?
**A.** ~2.5 µM

**Q.** And the inhibition at 0.0025 µM [1, 8]?
**A.** 99%

**Q.** What about the inhibition at 0.005 µM [1, 8] of the same compound?
**A.** 99%

**Q.** What does the source list for CCCCCCCCCCCCCC=CC(O)C(COC1(C(=O)O)CC(O)C(NC(C)=O)C(C(O)C(O)CO)O1)NC(=O)CCCCCCCCCCCCCCCCC [βGM5, (2S,3R,4E)-1-O-(5-acetamido-3,5-dideoxy-D-glycero-α- and β-D-galacto-f2-nonulopyranosylonicacid)-2-octadecanamido-4-octadecene-1,3-diol]?
**A.** immunosuppressive activity in vitro, in words [1]: potent immunosuppressive agents; [^3 H] Thymidine Uptake ([1]; 2.5 μM): 1.4 CPM × 10^-3; [^3 H] Thymidine Uptake ([1]; 5.0 μM): 0.3 CPM × 10^-3; inhibition at 2.5 µM [1, 8]: 86%; inhibition at 5 µM [1, 8]: 97%

Source: patent US5567684A, “Synthetic ganglioside derivatives” (The Regents of The University of California, priority 1994, dated 1996)
